From PMC9814929, “Control over the fibrillization yield by varying the oligomeric nucleation propensities of self-assembling peptides” (Communications Chemistry, 2020) come the findings set out here.

Assay in data set [1]: not given
This is another data set of the same source.

Data set [2] is described as follows: Solid-state NMR population profiling (dipolar CP and scalar INEPT spectra) of fibril and non-fibril assemblies. Type of data set: physicochemical. The following applies: 4 mM, pH 7.4 in PBS, 3 days, 500 MHz, 10 kHz MAS, 280 K; for normalization scaling factor of the dipolar ssNMR spectrum relative to SLP1 (higher factor = lower fibrillization yield): dipolar CP spectra report on rigid 1D nanofibers. As for the experimental part:
As a next step, we hypothesized that higher-resolution methods might disclose further differences in the properties of the SLP assemblies. To examine our hypothesis, we profiled the SLP1–4 assemblies using ssNMR spectroscopy. Using the same conditions (4 mM, pH 7.4 in PBS for 3 days), we acquired the so-called dipolar cross-polarization (CP) ssNMR spectra and so-called scalar INEPT ssNMR spectra on isotopically (^13C, ^15N) labeled SLP assemblies (see “Methods”), which enables to quantify rigid and mobile populations of peptide assemblies in the systems[36] (Fig. 3b). While dipolar signals report on immobilized peptides in 1D assemblies, scalar spectra report on peptides with fast pico-to-nanosecond dynamics, which can either be monomeric peptides or micellar oligomers[16],[32]. We specifically labeled residues in the hydrophobic tail (Val1–2 and Leu6–7) that are responsible for the self-assembly. […] The intensity of the dipolar spectra correlates with the amount of rigid cross-β structure present in the system. We observe that the intensities of dipolar signal of SLP1 is larger than SLP2 (normalization scaling factor of 10, Fig. 3b) and SLP3 (normalization scaling factor of 25, Fig. 3b), which indicate the relative fibrillization yield of SLP1 > SLP2 > SLP3. […]
1D CP[48] and scalar[49] ssNMR experiments to probe rigid and mobile populations, respectively, were acquired at 11.7 T magnetic field (500 MHz (^1H frequency) with 10 kHz magic angle spinning (MAS) and 280 K sample temperature. 2D ^13C–^13C and 2D CαN for peptide assignments were also performed at similar conditions. 2D Ca(N)H experiments for ^15NT1rho relaxation studies were performed at 950 MHz magnetic field strength with 60 kHz. ^13C was detected in the indirect dimension because of spectral overlap in the ^15N dimension. The 2D ^13C–^13C PARIS[37] experiment with the CPMAS CryoProbe[39] to measure intermolecular peptide contacts was performed at 600 MHz and 12 kHz MAS using 700 ms magnetization transfer and a ^1H recoupling amplitude of 6 kHz.

The nature of data set [3]: Negative-staining TEM and AFM of the mesoscale structure of SLP assemblies. Type of data set: physicochemical. The following applies: 4 mM, pH 7.4 in PBS. How it is done:
Next, we investigated the downstream effect of the differences in size of oligomeric particles and β-sheet propensities on the supramolecular self-assembly. One of the pivotal events in defining supramolecular self-assembly is whether nucleation has taken place or not. This can be identified by the mesoscale structures of the assemblies after certain time of incubation, e.g., the formation of one-dimensional (1D) nanostructures is indicative that nucleation has taken place. We used negative-staining transmission electron microscopy (TEM) and atomic force microscopy (AFM) to compare SLPs that were assembled under the same preparation protocol (4 mM, pH 7.4 in phosphate-buffered saline (PBS) for 3 days). We could indeed detect markedly different mesoscale structures in these SLP systems (Figs. 3a and S1). […] Based on these mesoscale evidences, we can deduce that nucleation occurred in SLP1–3, however, not in SLP4.
Peptide assemblies were prepared by dissolving peptide powders in nine volumes of 10 mM sodium hydroxide in 1.5 ml Eppendorf tube. One volume of PBS (10×) was added to make sample of pH 7.4 ± 0.2 and a final concentration of 4 mM. Solution was vortexed for 5 s and incubated statically for 3 days at room temperature before proceeding for measurements.
Samples prepared at 4 mM were diluted tenfold with 1× PBS. Formvar/carbon-coated 400 mesh copper grid (Polysciences Inc.) was placed on top of a droplet of 20 μl of diluted samples. After 2-min incubation, the grid was washed three times with […] filtered mili-Q water and blotted dry with filter paper. Negative staining was performed for 1 min with 2% w/v uranyl acetate in water. Staining solution was blotted off with filter paper. […]
AFM micrographs were recorded using a Bruker MultiMode 8 (ScanAsyst Air silicon nitride probes, spring constant 0.4 N/m, nominal tip radius 2 nm) and post-processed by a plane subtraction and line alignment. Three different spots (one in main text, two in Fig. S3) were measured on the sample to confirm uniformity and get a comprehensive view of the sample’s features.

Assay in data set [4]: not given
This is another data set of the same source.

Assay in data set [5]: not given
The source holds these as a separate data set.

For data set [6] the following is noted: larger oligomers or early nucleated structures; 1 µM Cy5-SLP in 4 mM unlabeled SLP, PBS pH 7.4; early assembly phase, measured after 5 min of preparatory work.
Protocol: To validate this hypothesis, we performed fluorescence correlation spectroscopy (FCS) measurements to study the diffusion properties of SLPs in the early phase of self-assembly. […] To explore these size differences in more detail, we fitted the FCS data with a higher-order fitting model. Maximum entropy method (MEM) was chosen to account for the polydispersity of the oligomers. Each condensed fraction was treated as one quasi-continuous distribution, so as to provide the widest data-complying size distribution (least chance of overinterpretation)[34].
The measurement concentration was 4 mM of SLPs in PBS (pH 7.4) of which 1 out of 4000 peptides was labeled with Cy5. The FCS autocorrelation curves were fitted with the maximum entropy method (MEM) for higher-resolution analysis on size distribution, indicated by the solid lines. c The size distribution of SLPs obtained from MEM analysis of the FCS measurements. The dashed line at D = 150 µm^2/s indicates the cut-off size between monomeric (D > 150) and oligomer (D < 150) populations.
Fluorescence time traces were obtained by focusing a 640-nm laser line through a water immersion objective lens (×60 Plan Apo VC, N.A. 1.2, Nikon, Japan) at ~50 µm above the bottom of the glass-bottom 96-well plate (Grainer Bio-one, Frickenhausen, Germany). […] After 5 min of preparatory work, 50 µl of sample was measured with confocal microscope (Nikon C1). […]

Where “and” joins values, the source holds several entries; their conditions need not be identical. Equal entries are not always repeated. Peptide text beside a SMILES is read from it.

The molecule `CC(=O)N[C@H](C(=O)N[C@H](C(=O)N[C@H](C(=O)N[C@H](C(=O)N[C@@H](CC(C)C)C(=O)N[C@@H](CC(C)C)C(=O)N[C@@H](CC(C)C)C(=O)N[C@@H](CCC(=O)O)C(=O)N[C@@H](CCC(=O)O)C(=O)O)[C@@H](C)O)C(C)C)C(C)C)C(C)C` [SLP2] (Ac-VVVTLLLEE-OH) had an XRD cross-β reflection of 4.7 Å. In data set [1], the nanofiber length is more than 1000 nm. Besides, in data set [2], the “normalization scaling factor of the dipolar ssNMR spectrum relative to SLP1 (higher factor = lower fibrillization yield)” value is listed as 10.

Take `CC(=O)N[C@H](C(=O)N[C@H](C(=O)N[C@H](C(=O)N[C@H](C(=O)N[C@@H](CC(C)C)C(=O)N[C@@H](CC(C)C)C(=O)N[C@@H](CC(C)C)C(=O)N[C@@H](CCC(=O)O)C(=O)N[C@@H](CCC(=O)O)C(=O)N[C@@H](CCC(=O)O)C(=O)O)[C@@H](C)O)C(C)C)C(C)C)C(C)C` [SLP4] (Ac-VVVTLLLEEE-OH): the “mesoscale structure of the assemblies (TEM, AFM)” value in data set [3] (3 days static at room temperature) is reported as “polydisperse zero-dimensional nanostructures”. In data set [3] (TEM/AFM, 3 days), the “diameter of the assembled nanostructures” value is recorded as 10–60 nm and the “nucleation event deduced from mesoscale structure” value was “no nucleation event has taken place”. For the same molecule, the “dipolar ssNMR signals (immobile assemblies)” value in data set [2] is listed as “absent”.

Consider `CC[C@H](C)[C@H](NC(=O)[C@@H](NC(=O)[C@@H](NC(=O)[C@@H](NC(=O)[C@@H](NC(C)=O)C(C)C)C(C)C)C(C)C)[C@@H](C)O)C(=O)N[C@@H](CC(C)C)C(=O)N[C@@H](CC(C)C)C(=O)N[C@@H](CCC(=O)O)C(=O)N[C@@H](CCC(=O)O)C(=O)O` [SLP1] (Ac-VVVTILLEE-OH), for which the XRD cross-β reflection came to 4.7 Å. The nanofiber diameter in data set [4] is 10 nm. Besides, the oligomer diffusion coefficient, fold smaller than SLP3–4 in data set [5] is 10 times and 10 fold. The nanofiber length in data set [1] was more than 1000 nm. The “diffusion coefficient of the SLP population (MEM analysis of FCS)” value in data set [6] was 0.1–1 µm^2/s.

In turn, `CC[C@H](C)[C@H](NC(=O)[C@@H](NC(=O)[C@@H](NC(=O)[C@@H](NC(=O)[C@@H](NC(C)=O)C(C)C)C(C)C)C(C)C)[C@@H](C)O)C(=O)N[C@@H](CC(C)C)C(=O)N[C@@H](CC(C)C)C(=O)N[C@@H](CCC(=O)O)C(=O)N[C@@H](CCC(=O)O)C(=O)N[C@@H](CCC(=O)O)C(=O)O` [SLP3] (Ac-VVVTILLEEE-OH) had an XRD cross-β reflection of 4.7 Å. In data set [4], this molecule came in with a nanofiber diameter of 10 nm. The same molecule showed a nanofiber length in data set [1] of more than 1000 nm. Also, the “normalization scaling factor of the dipolar ssNMR spectrum relative to SLP1 (higher factor = lower fibrillization yield)” value in data set [2] came out at 25.
